Results from PMC11360483, “Anti-Inflammatory, Antibacterial, Anti-Biofilm, and Anti-Quorum Sensing Activities of the Diterpenes Isolated from Clinopodium bolivianum” (Pharmaceutics, 2024).
≈ marks a conversion by molar mass, not a printed value. Where “and” joins values, the source holds several entries; their conditions need not be identical. Identical values can stand only once. Counter-ions that a name gives are not always drawn. Like-named read-outs stand apart in the source and are kept apart here. *1 amine or outer side, *2 acyl side, *3 side chain or, on linkers, in order; H or OH if unused. Where a SMILES comes first, the peptide text is derived from it. Bridges are numbered along the chain shown (N, C = ends). Roman numbers before positions name the chains, in order. [ ]: non-standard residue; d: D form. Actinocin(9to1) = Cc1c2oc3c(C)ccc(C(=O)[*:1])c3nc-2c(C(=O)[*:2])c(N)c1=O; NMeV = CN[C@H](C(=O)O)C(C)C; Sar = CNCC(=O)O

Legend:
NF-κB [1] = experiment: NF-κB inhibition assay (LPS-stimulated) in THP-1; assay type: cell-based; settings: Homo sapiens, read-out: NF-κB Inhibition at 24 h IC50 ± SEM
NF-κB [2] = experiment: NF-κB inhibition assay (LPS-stimulated) in HBEC3-KT; assay type: cell-based; settings: Homo sapiens, 24 h, read-out: NF-κB Inhibition at 24 h IC50 ± SEM
NF-κB [3] = experiment: NF-κB inhibition assay (LPS-stimulated) in MRC-5; assay type: cell-based; settings: Homo sapiens, read-out: NF-κB Inhibition at 24 h IC50 ± SEM
L. pneumophila [4] = assay type: cell-based, Legionella pneumophila
S. pneumoniae [5] = experiment: microbe, parasite or virus in culture; assay type: cell-based; settings: Streptococcus pneumoniae, 24 h
H. influenzae [6] = experiment: microbe, parasite or virus in culture; assay type: cell-based; settings: Haemophilus influenzae, 24 h
C. violaceum [7] = assay type: cell-based, Chromobacterium violaceum; settings: for % of Violacein Inhibition: at the Anti-QS concentration (compound 3 at 0.94 µM, compound 4 at 1.16 µM)
L. pneumophila [8] = experiment: microbe, parasite or virus in culture; assay type: cell-based; settings: Legionella pneumophila, 24 h
S. aureus [9] = experiment: microbe, parasite or virus in culture; assay type: cell-based; settings: Staphylococcus aureus, 24 h
C. violaceum [10] = experiment: Anti-biofilm activity on C. violaceum; assay type: cell-based, Chromobacterium violaceum
S. aureus [11] = assay type: cell-based, Staphylococcus aureus
H. influenzae [12] = assay type: cell-based, Haemophilus influenzae
[13] = WST-1 cytotoxicity (viability) assay, control cell line; settings: human
S. pneumoniae [14] = assay type: cell-based, Streptococcus pneumoniae
[15] = test system: H. influenzae, L. pneumophila, S. pneumoniae, and S. aureus; assay type: cell-based; settings: strain not stated
[16] = WST-1 cytotoxicity assay, cell line not singled out; settings: human
[17] = test system: H. influenzae, L. pneumophila, S. pneumoniae, and S. aureus; experiment: organism not typed; assay type: cell-based
Hep3B cells = test system: Hep3B cells; set-up: method as in PMID 37423053; settings: cited from earlier work
Huh7 cells = test system: Huh7 cells; set-up: method as in PMID 37423053; settings: cited from earlier work
[18] = WST-1 cytotoxicity (viability) assay; settings: human, WST-1, 24 h, HBEC3-KT
[19] = WST-1 cytotoxicity (viability) assay; settings: human, WST-1, 24 h, MRC-5
[20] = test system: H. influenzae, L. pneumophila, S. pneumoniae, and S. aureus; assay type: cell-based; settings: strain not stated; remark: listed apart in the source
RAW 264.7 cells = test system: RAW 264.7 cells; set-up: method as in doi:10.1016/j.phytol.2020.01.005; settings: read-out: IC50, inhibition of nitric oxide (NO) production; cited from earlier work
[21] = MRC5, MRC-5, LPS-stimulated, 24 h
[22] = value given in the method for the compounds
[23] = value given in the method for the extracts
[24] = range over S. pneumoniae and S. aureus Gram-positive bacteria

| SMILES | Quorum Sensing Inhibition at 24 h Anti-QS ± SEM (L. pneumophila [4]) | IC50 (NF-κB [1]; THP-1, LPS-stimulated, 24 h) | MIC (S. pneumoniae [5]) | IC50 (NF-κB [2]; LPS-stimulated) | MIC (H. influenzae [6]) | Anti-QS (C. violaceum [7]) | % of Violacein Inhibition (C. violaceum [7]) | IC50 (NF-κB [3]; [21]) | MIC (L. pneumophila [8]) | MIC (S. aureus [9]) | BIC (C. violaceum [10]) | Quorum Sensing Inhibition at 24 h Anti-QS ± SEM (S. aureus [11]) | Quorum Sensing Inhibition at 24 h Anti-QS ± SEM (H. influenzae [12]) | CC50 at 24 h [13] | Quorum Sensing Inhibition at 24 h Anti-QS ± SEM (S. pneumoniae [14]) | also measured |
| --- | --- | --- | --- | --- | --- | --- | --- | --- | --- | --- | --- | --- | --- | --- | --- | --- |
| CC1=C(O)C(=O)C=C2C1=CC=C1[C@@]2(C)CC[C@@]2(C)[C@@H]3C[C@](C)(C(=O)O)CC[C@]3(C)CC[C@]12C [CEL, Celastrol, reference compound] | – | – | – | – | – | – | – | – | – | – | – | – | – | – | – | IC50 (NF-κB [1]; THP-1, 24 h): 7.63 µM and 3.34 µg/mL; IC50 (NF-κB [2]): 7.15 µM and 3.24 µg/mL; IC50 (NF-κB [3]; MRC5, 24 h): 7.41 µM and 3.27 µg/mL |
| CC(C)(O)C1=CC2=CCC3[C@](C)(CCC[C@@]3(C)C(=O)O)C2CC1=O (some centres unmarked) [Compound 1, 15-Hydroxy-12-oxo-abietic acid] | 2.44 ± 0.09 µM | 43.4 ± 0.73 µM | 4.14 µM (≈ 1.38 µg/mL) | 27.9 ± 0.89 µM | 28.3 µM (≈ 9.42 µg/mL) | 4.83 ± 0.05 µM | 20.45% | 39.01 ± 0.22 µM | 20.2 µM (≈ 6.72 µg/mL) | 7.88 µM (≈ 2.62 µg/mL) | 11.31 ± 0.07 µM | 12.24 ± 0.08 µM | 4.64 ± 0.09 µM | 88.4 µM | 9.89 ± 0.04 µM | – |
| O=C1C=C(Br)/C(=C/Br)O1 [Furanone C-30, (Z)-4-Bromo-5-(bromomethylene)-2(5H)-furanone, reference compound] | 11.59 ± 0.03 μM and 3.03 ± 0.08 μg/mL | – | – | – | – | – | – | – | – | – | – | 12.67 ± 0.02 μM and 3.77 ± 0.04 μg/mL | 11.81 ± 0.05 μM and 3.21 ± 0.02 μg/mL | – | 12.03 ± 0.08 μM and 3.44 ± 0.06 μg/mL | Anti-QS value of positive control [15, 22]: 11.81 µM; Anti-QS value of positive control [15, 23]: 3 µg/mL |
| O=C(O)c1cn(C2CC2)c2cc(N3CCNCC3)c(F)cc2c1=O [CIP, Ciprofloxacin hydrochloride, reference compound] | – | – | – | – | – | 1.51 ± 0.01 µM | 71.68% | – | – | – | 2.13 ± 0.01 µM | – | – | – | – | violacein inhibitory concentration (CIV) (C. violaceum [7]; reference standard): 1.51 µM |
| CC1=C2C=C3CCC4C(C)(C)CCC[C@]4(C)C3CC2OC1=O (single isomer, unassigned; (-)) [Compound 3, (−)-Jolkinolide E] | 0.31 ± 0.03 µM | 29.4 ± 0.48 µM | 0.53 µM (≈ 0.159 µg/mL) | 18 ± 0.37 µM | 4.89 µM (≈ 1.47 µg/mL) | 0.94 ± 0.03 µM | 78.13% | 23.96 ± 0.21 µM | 1.71 µM (≈ 0.514 µg/mL) | 1.09 µM (≈ 0.327 µg/mL) | 1.62 ± 0.06 µM | 4.88 ± 0.09 µM | 0.64 ± 0.01 µM | 71.2 µM | 3.01 ± 0.07 µM | CC50 at 24 h [16]: > 70 µM; MIC [17, 24]: 0.53 to 1.09 µM; cytotoxicity (Hep3B cells): 37.23 µM; cytotoxicity (Huh7 cells): 39.53 µM |
| CC(C)C1=CC2=CC[C@@H]3[C@](C)(CCC[C@@]3(C)C(=O)O)[C@H]2C[C@@H]1O [Compound 2, 12α-Hydroxyabietic acid] | 1.95 ± 0.07 µM | 32.6 ± 0.69 µM | 3.31 µM (≈ 1.05 µg/mL) | 21.9 ± 0.23 µM | 23.5 µM (≈ 7.47 µg/mL) | 3.55 ± 0.06 µM | 48.88% | 26.9 ± 0.61 µM | 17.2 µM (≈ 5.49 µg/mL) | 5.42 µM (≈ 1.73 µg/mL) | 7.54 ± 0.05 µM | 11.81 ± 0.07 µM | 3.19 ± 0.04 µM | 84.3 µM | 8.14 ± 0.05 µM | – |
| Cc1c2oc3c(C)ccc(C(=O)N[C@@H]4C(=O)N[C@H](C(C)C)C(=O)N5CCC[C@H]5C(=O)N(C)CC(=O)N(C)[C@@H](C(C)C)C(=O)O[C@@H]4C)c3nc-2c(C(=O)N[C@@H]2C(=O)N[C@H](C(C)C)C(=O)N3CCC[C@H]3C(=O)N(C)CC(=O)N(C)[C@@H](C(C)C)C(=O)O[C@@H]2C)c(N)c1=O [ACTD, Actinomycin D, reference compound] (I: T[dV]P[Sar][NMeV] / II: T[dV]P[Sar][NMeV]; ester I:1-I:C, II:1-II:C; linker I:N-II:N via Actinocin(9to1)) | – | – | – | – | – | – | – | – | – | – | – | – | – | – | – | CC50 at 24 h ([16]; CC50, cell line not singled out, for the compounds): 0.008 µM; CC50 at 24 h ([16]; CC50 of positive control, value given in the method for the extracts, cell line not stated): 0.01 µg/mL; CC50 at 24 h [18]: 0.014 µg/mL and 10 nM; CC50 at 24 h [19]: 0.017 µg/mL and 10 nM; CC50 at 24 h ([13]; Viability (CC50), WST-1, 24 h, THP-1): 0.019 µg/mL and 10 nM |
| N=C(NCCCCCCNC(=N)NC(=N)Nc1ccc(Cl)cc1)NC(=N)Nc1ccc(Cl)cc1.O=C(O)[C@H](O)[C@@H](O)[C@H](O)[C@H](O)CO.O=C(O)[C@H](O)[C@@H](O)[C@H](O)[C@H](O)CO [CHG, chlorhexidine digluconate] | – | – | – | – | – | – | – | – | – | – | – | – | – | – | – | BIC of reference control [20, 22]: 2.23 µM; BIC of reference control [20, 23]: 2000 µg/mL |
| CC1COc2c(N3CCN(C)CC3)c(F)cc3c(=O)c(C(=O)O)cn1c23 (centres unmarked) [OFX, Ofloxacin, reference compound] | – | – | 9.03 µg/mL and 25.1 µM | – | 12.3 µg/mL and 28.4 µM | – | – | – | 11.3 µg/mL and 26.8 µM | 10 µg/mL and 24.1 µM | – | – | – | – | – | MIC ([17]; read-out: MIC of positive control, for the compounds, strain not stated or range over the four strains): 27.7 µM; MIC ([17]; read-out: MIC of positive control, value given in the method for the extracts, strain not stated): 10 µg/mL |
| CC(C)(O)c1ccc2c(c1)CC[C@H]1[C@](C)(C(=O)O)CCC[C@]21C [Compound 4, 15-Hydroxydehydroabietic acid] | 1.21 ± 0.04 µM | 23.4 ± 0.71 µM | 2.06 µM (≈ 0.652 µg/mL) | 10.8 ± 0.69 µM | 15.4 µM (≈ 4.88 µg/mL) | 1.16 ± 0.06 µM | 71.60% | 17.4 ± 0.82 µM | 9.83 µM (≈ 3.11 µg/mL) | 4.06 µM (≈ 1.28 µg/mL) | 5.81 ± 0.02 µM | 10.08 ± 0.08 µM | 2.39 ± 0.03 µM | 78.9 µM | 7.78 ± 0.01 µM | MIC [17, 24]: 2.06 to 4.06 µM; IC50 (RAW 264.7 cells): 50.9 µM |
